The structures appear in SMILES notation. Peptide text beside a SMILES is read from it. * marks the point of attachment. NHtBu = CC(C)(C)N*

In turn, `COC(=O)/C=C\C(=O)OC` gave a logP of 0.22. `O=C(O)COc1ccccc1I` registered a logP of 2.33. The result for `[N-]=[N+]=NC1CC(n2cnc3c(=O)[nH]c(N)nc32)OC1CO` (stereo not given) reads -0.33; that for `c1ccc(Cn2nccn2)cc1`, 1.56.

For `Cc1cscn1`, the logP stood at 0.97.

The molecule `Cc1cc(NS(=O)(=O)c2ccc(N)cc2)nc(C)n1` gave a logP of -0.33. The result for `COC1=C(N2CC2)C(=O)C(OC)=C(N2CC2)C1=O` reads 0.17; that for `CCOc1ccccc1S(I)=C(N(C)C)N(C)C` (stereo not given), -0.06; that for `S=C1CCCCN1`, 0.13.

With `COC(=O)C(C)NC(C)=O` (stereo not given), the logP is -0.57. The result for `Nc1ccccc1SSc1ccccc1N` reads 3.05; that for `Cc1ccccc1NS(=O)(=O)c1ccc(N)cc1`, 2.03; that for `OC(c1ccccc1)(c1cncnc1)c1ccc(Cl)cc1Cl` (stereo not given), 2.56.

The molecule `NC(=O)c1cc([N+](=O)[O-])cc([N+](=O)[O-])c1` came in with a logP of 0.83. The molecule `Nc1cccc([N+](=O)[O-])c1N` came in with a logP of 1.27.

In the case of `Nc1ncnc2c1ncn2C1CC(O)C(CO)O1` (stereo not given), the logP is -0.55. The result for `CCn1nnc2ccccc21` reads 1.58. `O=[N+]([O-])c1cccs1` gave a logP of 1.55. The logP values of the last two molecules are within 0.2 log units of each other. The result for `CC(C)(C)NC[C@H](O)COc1nsnc1N1CCOCC1` reads 1.83; that for `OC(c1ccc(Cl)cc1)(c1ccc(Cl)cc1)C1CC1`, 5.5; that for `COC(=O)c1cccc(O)c1`, 1.89. The result for `CCC(C(c1ccc(OC)cc1)c1ccc(OC)cc1)[N+](=O)[O-]` (stereo not given) reads 4.45; that for `COC(=O)c1ccc(OC)cc1`, 2.27.

The molecule `Clc1cncc(Cl)c1` returned a logP of 2.56.

For `CN1CCN(CCCN2c3ccccc3Sc3ccc(C(F)(F)F)cc32)CC1`, the logP turned out to be 5.03.

For `Cc1c(I)c(=O)n(-c2ccccc2)n1C`, the logP turned out to be 1.27. As for `COc1cnc2ccccc2n1`, the figure is 2.31. As for `CC(=O)c1ccc(NC=O)cc1`, the figure is 0.94; as for `Clc1cc(Cl)c(Cl)c(-c2c(Cl)c(Cl)c(Cl)c(Cl)c2Cl)c1Cl`, 8.16; as for `CCSc1ccccc1`, 3.2. The result for `O=[N+]([O-])c1ccc(Nc2ccccc2)cc1` reads 3.74. Turning to `CCCCOC(=O)n1cnc(CC(NC(=O)C2CCC(=O)N2)C(=O)N2CCCC2C(N)=O)c1` (stereo not given), the logP was -0.47. On to `O=[N+]([O-])c1ccc2sccc2c1`, for which the logP amounted to 2.92.

As to `O=S(c1ccccc1)c1ccccc1`, the logP was determined as 2.06.

`CC(=O)NC(C)(C)C(N)=O`: the logP was -0.87. The result for `CC[C@H](C)[C@H](NC(=O)[C@H](CC(C)C)NC(C)=O)C(N)=O` (Ac-Leu-Ile-NH2) reads 0.68. The result for `COCCOCC1COC(c2ccc(Cl)cc2Cl)(n2cncn2)O1` (stereo not given) reads 2.03.

As to `CC(=O)NC(CO)C(O)c1ccc([N+](=O)[O-])cc1` (stereo not given), the log partition coefficient (logP) is -0.03. The result for `CNC(=O)Oc1ccc2ccccc2c1` reads 2.56; that for `CC(C)C(=O)CC(=O)C(C)C`, 2.22. The result for `CC(=O)Nc1cccc(NC(C)=O)c1` reads 0.5; that for `CC(C)c1ccc([N+](=O)[O-])cc1`, 3.45; that for `O=C1Cc2ccccc2N1`, 1.16. The result for `CCCCC(=O)O[C@]1(C(=O)CO)[C@@H](C)C[C@H]2[C@@H]3CCC4=CC(=O)C=C[C@]4(C)[C@@]3(F)[C@@H](O)C[C@@]21C` reads 3.6; that for `O=S(=O)(CF)Nc1ccc(Cl)cc1`, 2.25. Turning to `Oc1nc(Cl)c(Cl)cc1Cl`, the logP was found to be 3.21. In turn, `OCCNc1ccccc1` came in with a logP of 0.82. `CC(=O)OCCc1ccccc1` showed a logP of 2.3. As for `O=C(CN1CCCCC1)Nc1cccc(I)c1`, the figure is 3.92. The result for `CCOC(=O)Cc1ccccc1` reads 2.28. For the molecule `O=CN1CCCC1`, the logP is -0.32.

As for `N#Cc1cccc2[nH]ccc12`, the logP was 2.46. The result for `CN(C)CCCc1ccccc1` reads 2.73. As for `O=S1(=O)NC(C(F)(F)F)=Nc2cc(Cl)ccc21`, the figure is 1.65; as for `O=C(O)c1c2ccccc2cc2ccccc12`, 3.85; as for `NS(=O)(=O)c1ccc(S(=O)(=O)CCO)s1`, -0.54. As for `CCNc1nc(Cl)nc(NCC)n1`, the figure is 2.18; as for `O=c1ccoc2cc(O)ccc12`, 1.44. Consider `CCCOc1cn[nH]c1`, for which the logP is 1.42. The result for `CCC1(C2=CCCCC2)C(=O)NC(=O)NC1=O` reads 1.77; that for `CCC(C)NC(=O)C=C(SC)c1ccccc1` (stereo not given), 3.03.

Turning to `O=Cc1cccc(Oc2ccccc2)c1`, the logP came out at 3.38. As for `O=[N+]([O-])c1ccc(C=Cc2ncccn2)o1`, the figure is 1.34; as for `Cc1ccc(S(=O)(=O)F)cc1`, 2.74; as for `Cc1nnc2n1-c1sc(Br)cc1C(c1ccccc1Cl)=NC2`, 2.79. As for `CC(=O)c1ccccc1[N+](=O)[O-]`, the figure is 1.28. The result for `S=c1[nH]c2ccccc2[nH]1` reads 1.66. On to `CNC(=O)c1ccoc1`, for which the logP came to 0.34. The result for `O=C(O)c1cccs1` reads 1.57; that for `CC(C)C(C#N)c1ccccc1` (stereo not given), 2.33; that for `NC(=O)Nc1ccc(Br)cc1`, 1.98.

In turn, `Oc1ccccc1I` came in with a logP of 2.65. The result for `NC(=O)CCc1cccnc1` reads -0.26; that for `COc1cc2c(c(OC)c1O)-c1ccc(OC)c(=O)cc1[C@@H](NC(C)=O)CC2`, 0.48. As for `O=[N+]([O-])c1cccc(Br)c1`, the figure is 2.64; as for `O=C1CCC(=O)N1c1cccc([N+](=O)[O-])c1`, 0.38; as for `CC(=O)Nc1c(C)cc(O)cc1C`, 0.31. `O=C(O)CCCCCN1C(=O)C=CC1=O` had a logP of 1.15. The result for `CCCCNC(=O)Cn1cnc([N+](=O)[O-])n1` reads 0.89; that for `OC1CCCCC1`, 1.23.

In turn, `O=C=O` had a log partition coefficient (logP) of 0.83.

`Cc1cccc(Nc2ccccc2C(=O)O)c1C` had a logP of 5.12. As for `NNC=O`, the figure is -2.05; as for `CCCCNC(=O)NO`, 0.32. As for `COC(=O)CCCC(=O)OC`, the figure is 0.62. `COc1cc2c(cc1OC)[C@@]13CCN4CC5=CCO[C@H]6CC(=O)N2[C@H]1[C@H]6[C@H]5C[C@H]43` showed a logP of 0.98.

`CCCN(CCC)C1CCOc2ccc(O)cc21` (stereo not given) registered a logP of 3.17. As for `O=[N+]([O-])c1ccc(Cl)c(Cl)c1`, the figure is 3.12; as for `Cc1cc(C)cc(O)c1`, 2.35. The result for `NCc1ccncc1` reads -0.38; that for `O=[N+]([O-])c1cc[n+]([O-])c2ccccc12`, 1.09. The result for `CCCCCc1ccncc1` reads 3.75; that for `NCCc1ccncc1`, -0.01; that for `CC1(C)S[C@@H]2[C@H](NC(=O)COc3ccccc3)C(=O)N2[C@H]1C(=O)O`, 2.09. Molecule `CON(C)/N=N/c1ccc(C(N)=O)cc1` displayed a logP of 1.19. The result for `NC(=O)Nc1cccc(Cl)c1` reads 1.82; that for `COC1C(O)CC(OC2C(O)CC(OC3C(O)CC(OC4CCC5(C)C(CCC6C5CC(OC(C)=O)C5(C)C(C7=CC(=O)OC7)CCC65O)C4)OC3C)OC2C)OC1C` (stereo not given), 2.87; that for `CN(C)C=C[N+](=O)[O-]`, -0.8. The result for `CCSCC` reads 1.95. The result for `O=C(O)COc1ccc(Cl)c(I)c1` reads 3.1; that for `NC[C@H](O)c1ccc(O)c(O)c1`, -1.24; that for `c1ccc2c(c1)COC2`, 1.76. In turn, `C=CCC1(CC(=C)Br)C(=O)NC(=O)NC1=O` showed a logP of 1.37. As for `COC(=O)C(=O)OC`, the figure is -0.17; as for `FC(F)(F)c1nc2c(Cl)cc(Cl)c(Cl)c2[nH]1`, 3.78; as for `CNC(=O)Oc1ccccc1C(C)(C)C`, 2.65. In the case of `COc1cccc(OC(=O)c2ccc(N)cc2O)c1`, the logP turned out to be 3.25.

As for `O=C1C=C(Cl)C(=O)c2ccccc21`, the logP is 2.29. The molecule `C=CCNC(=O)NCC=C` yielded a logP of 0.64. The result for `CCOC(=O)C(=Cc1ccc(Cl)cc1Cl)C(C)=O` reads 3.67. The result for `CCOP(=O)(N=C1SCC(C)S1)OCC` (stereo not given) reads 1.04; that for `O=[N+]([O-])c1cc[n+]([O-])c2ccc(Cl)cc12`, 1.41; that for `COc1ccc(C(=O)O)cc1`, 1.96. As for `Cc1n[nH]c(C(=O)NCCc2ccccc2)c1[N+](=O)[O-]`, the figure is 1.82; as for `CC(C)(C)c1cccc(C(C)(C)C)c1O`, 4.92. `CCCCCCCOC(=O)C(C(=O)OCCCCCCC)=C1SCCS1` displayed a logP of 7.6.

`OCCCCCc1cccnc1` yielded a logP of 1.41.

The molecule `NCCC(N)C(=O)O` (stereo not given) registered a logP of -4.64.

The molecule `CC(=O)NC(C)C(=O)NCC(=O)NC(C)C(=O)NC(C)(C)C` (stereo not drawn) (Ac-Ala-Gly-Ala-NHtBu; configuration not given here) registered a logP of -0.6.

As to `CC(=O)c1ccnc2cc(Cl)ccc12`, the logP was 2.62. The result for `CC(=O)Oc1ccccc1C(C)C` reads 2.78. The result for `Clc1nc(Cl)c(Cl)c(Cl)c1Cl` reads 3.53. As to `O=C(OC1CCCCC1)n1cc(F)c(=O)[nH]c1=O`, the logP is 1.42. As for `Cc1ccco1`, the figure is 1.85.

Regarding `CCc1cc(OC)c(CC(C)N)cc1OC` (stereo not given), the logP amounted to 2.81.

With `N#Cc1cccc(C(=O)O)c1`, the logP came out at 1.48.

With `CSCC(=O)C=NO`, the logP stood at 1.21. Take `CN(C)c1ccc(N=Nc2ccccc2)cc1`: the logP came to 4.58. The result for `Ic1ccc(I)cc1` reads 4.11; that for `C=CCOc1ccc(CC(=O)O)cc1Cl`, 2.48; that for `CC(O)CN` (stereo not given), -0.96. The result for `CCCCCOc1cccc(O)c1` reads 3.63; that for `CCCNC(=O)c1[nH]nc(C)c1[N+](=O)[O-]`, 0.65; that for `Nc1ccccc1N`, 0.15. As to `C1CCCCCC1`, the logP stood at 4.

These data come from the OPERA property sets (Mansouri et al. 2018).
